“And” between values parts separate entries of the source, which are not always exact repeats. Equal entries are not always repeated.

Usually EC50 stands for the concentration needed to bring the measured effect to its halfway point.

One assay concerns JNK phosphorylation. Briefly: AuF-induced phosphorylation of JNK in SH-SY5Y cells, western blot. The class given is cell-based, human. How it is done: SH-SY5Y cells were treated with 10 µM AuF with or without SD-444. Phosphorylation was determined by western blot analysis. The amount of each band was quantitated by densitometry and plotted with a linear regression program normalized to total JNK.
In the assay, twenty to thirty micrograms of protein samples were loaded on 10-12% SDS-PAGE gels. The proteins were then transferred electrophoretically to nitrocellulose (Whatman, Germany). The blots were blocked by incubation for 1 h at RT in TBS-T (25 mM Tris-HCl pH 7.4, 0.9% NaCl and 0.02% Tween-20) with 4% Difco skim milk (BD, USA), and incubated over-night at 4° C. with the primary antibody: p-p38^MAPK (Thr180/Tyr182), rabbit mAb; p38, rabbit Ab.
In the assay, twenty to thirty micrograms of protein samples were loaded on 10-12% SDS-PAGE gels. The proteins were then transferred electrophoretically to nitrocellulose (Whatman, Germany). The blots were blocked by incubation for 1h at RT in TBS-T (25 mM Tris-HCl pH 7.4, 0.9% NaCl and 0.02% Tween-20) with 4% Difco skim milk (BD, USA), and incubated over-night at 4° C. with the primary antibody: p-JNK^MAPK, and β-catenin.
A general note: A western blot detects proteins with antibodies after separation by electrophoresis.

The subject of assay [1] is Rotenone -induced model of Parkinson's disease (PD) in rats. Briefly: Rat rearing behavior (cylinder) test, rotenone model. It is filed as in vivo, Sprague Dawley rats. The conditions noted are these: for Cylinder rise and touch (number of rears in 2 min): individual rat, listed as SDA. How it is done: 1-SD (Rotenone + SD); 2 - SDA (Rotenone + SDA); 3 - Control (Rotenone); 4 -Naive. The experimental groups were comprised of 6 animals for treated groups (1-3) and 2 animals in naive group (4). Rotenone was administrated 3.0 mg/kg intraperitoneally (IP) once a day in the morning (days 1-9). SD 33 mg/kg and SDA 33 mg/kg were administrated intraperitoneally once a day in the afternoon (days 1-9).
Rearing behavior, rotarod and beam walk tests were performed before initiation of treatment (day 0) as well as on days 4, 8 and 10 of the experiment.
IP administration: Rotenone was administrated to groups 1-3. Rotenone was injected intraperitoneally at a dose 3.0 mg/kg once a day in the morning (days 1-9). SD and SDA was administrated both at a dose of 33 mg/kg and were injected intraperitoneally once a day in the afternoon (days 1-9). Group number 4 was untreated, and remained as a naive group.
Animals were placed in a clear glass cylinder (40 cm high and 20 cm diameter) and number of rears in 2 min was observed. Rear was considered as animals raised their hands above the shoulder and made contact with the wall of cylinder with their forelimb.

Regarding `CC(=O)NC(CS)C(=O)NC(Cc1cccc(O)c1O)C(N)=O` (centres unmarked) [SDA-341, Acetyle-Cys-2,3 dihydroxyphenylalanine-amide], the EC50 with JNK phosphorylation (10 µM AuF, western blot densitometry, read-out: EC50 in reduction of JNK activation) came out at 100 µM. The “JNK phosphorylation (AuF-triggered)” value with JNK phosphorylation (summary statement) was “inhibit”. Besides, the “Cylinder rise and touch, group average” value was 12.83 in assay [1] (average n=6, day 0 (before treatment)); 12.67 in assay [1] (average n=6, day 4); 14.83 in assay [1] (average n=6, day 8); 12.50 in assay [1] (average n=6, day 10). Further, the “Cylinder rise and touch (number of rears in 2 min)” value in assay [1] (day 0 (before treatment), rotenone 3 mg/kg + compound 33 mg/kg IP) is 18 (2×) and 9 and 12 (2×) and 8; in assay [1] (day 4), 14 (2×) and 12 and 11 and 15 and 10; in assay [1] (day 8), 15 and 19 (2×) and 8 and 12 and 16; in assay [1] (day 10), 11 and 14 (2×) and 9 and 10 and 17. Also, in assay [1] (rats, rotenone 3.0 mg/kg IP + compound 33 mg/kg IP, days 1-9), the “Cylinder test, maintaining locomotor activity in Rotenone-treated rats” value was “very effective”.

For the origin of these results see patent US20230192764A1, “NOVEL DOPAMINE PRECURSORS” (Yissum Research Development Company of the Hebrew …, priority 2018, published 2023).
